Test results reported in patent US5770623A, “Argine antagonists for inhibition of systemic hypotension associated with nitric oxide production or endothelial derived relaxing factor” (Board of Regents, The University of Texas System, priority 1995, dated 1998).
Entries after “also recorded” stand apart in the source; their conditions may differ.

Key:
[1] = test system: systemic hypotension mediated by interleukin-1; assay: Interleukin-1 mediated systemic hypotension; assay type: in vivo; conditions: after N^G-aminoarginine
L929 cells = assay: Cytolytic activity of rh-TNF against Actinomycin D-treated L929 cells; assay type: cell-based, murine
Method: TNF bioactivity was measured by the cytotoxicity towards murine L929 cells, in vitro.

[2] = test system: bovine aortic endothelial cells (BAEC); assay: A23187-stimulated nitrite release from bovine aortic endothelial cells; assay type: cell-based; conditions: 3 μg/ml A23187, 4-hour, FIG. 12
Method: The % inhibition of relaxation is calculated from the maximum ACh-induced relaxation observed in the presence of the arginine analog relative to that in its absence. Points represent mean values±SEM (n=4-6). […] Another N^G substitution tested for inhibition of induced nitrite release had two methyl groups on one of the arginine guanidino nitrogens. Concentration-response relationships for inhibition of A23187-stimulated nitrite release by bovine aortic endothelial cells (BAEC) are shown in FIG. 9a for the N,N-disubstituted derivative in comparison with several monosubstituted derivatives. Nitrite production was measured as an indication of nitric oxide synthesis since nitric oxide spontaneously decays to nitrite. Nitrite production by BAEC in a 2-hr. period was assessed in an L-arginine-free medium alone or in the presence of the indicated concentration of arginine analogs. The points plotted represent means±S.E. of the percent inhibition of nitrite production observed in 3 individual BAEC culture wells. The key on FIG. 9a indicates the groups substituted on the guanidino nitrogens of L-arginine.
Points are mean values±SEM (n=3).

[3] = test system: human LAK cells against Raji target cells; assay: IL-2 mediated lymphokine activated killer cell activity in vitro; assay type: cell-based
Method: *% Lysis calculated from the % of release of radioactivity from ^51
Crlabeled Raji Target cells minus spontaneous release.

[4] = test system: dog coronary (CA) and femoral artery (FA); assay: ACh-induced relaxation of dog coronary and femoral artery; conditions: NMMA 100 μM
Method: Guinea pig pulmonary artery (GP PA), rat and rabbit aorta (Ao), and dog coronary (CA) and femoral artery (FA) were precontracted with NE (1 μM) and relaxed with a single concentration of ACh. Concentration of ACh: GP PA 1 μM, rat Ao […], rabbit Ao 0.3, dog CA […] and […] 0.1 μM. […] The concentrations of L-citrulline (L-cit), D-arginine (D-arg) and L-arginine (L-arg) were all 0.5 mM. Bars are mean values±SEM (n=4-6).

[5] = test system: mongrel dogs with TNF-induced hypotension; conditions: Kilbourn et al. 1990; listed as L-NMA; cited from earlier work
anesthetized guinea pig = assay: Pressor effect in the anesthetized guinea pig; assay type: in vivo; conditions: 1-10 mg/kg i.v. (L-NMA)
Source text: Points are mean changes in diastolic arterial pressure (±SEM; n=4-5). Control systolic and diastolic BP was 75±3 and 51±3 mm Hg, respectively.

For `N=C(N)NCCC[C@H](N)C(=O)O` [L-arginine, reference compound], the “effect of L-arginine on the reversal” value [1] was “obviated this reversal”.
In the case of `CNC(=N)NCCC[C@H](N)C(=O)O` [NMMA, N^G -methyl-L-arginine], the “TNF Activity” value (L929 cells; [NMMA] 0.125 mM) is reported as 536.9 Units/ml, the “TNF Activity” value (L929 cells; [NMMA] 0.250 mM) is reported as 538.2 Units/ml and the “TNF Activity” value (L929 cells; [NMMA] 0.500 mM) is reported as 562.4 Units/ml. The “TNF Activity” value (L929 cells; [NMMA] 1.0 mM) was 415.7 Units/ml, the “effect on cytolytic effect of TNF towards tumor cells” value (L929 cells; murine L929 cells, in vitro) was “did not alter the cytolytic effect of TNF” and the “effect on EDRF/NO (nitrite) release” value [2] was “inhibits EDRF/NO release”. The “% Target Cell Lysis” value ([3]; [NMMA] 2.0 mM, E:T = 80:1, 40 U/ml IL2) was 75.1 ± 4.1%, the “effect on proliferation phase or lytic phase of LAK cells” value ([3]; exposed to IL-2, in vitro) was “did not alter” and the “anti-tumor activity of IL-2 in vitro” value ([3]; in vitro) was “does not inhibit the anti-tumor activity”. For the same compound, the “inhibition of EDRF/NO in vascular preparation” value [4] was “arginine reversible inhibitor of EDRF/NO”, the “reversal of TNF-induced hypotension” value [5] was “completely reversed; also recorded: substantially reversed” and the “effect on diastolic BP / pressor effect (words)” value (anesthetized guinea pig) was “increase the resting blood pressure”. For the same compound, the “effect on diastolic BP / pressor effect (words)” value (anesthetized guinea pig; listed as L-NMA) was “sustained rise in diastolic BP”.
